Molecules are shown by their SMILES.

The test deals with Beta-lactamase TEM (Escherichia coli) (UniProt P62593). Put plainly: Kd for TEM-1 beta-lactamase.
Sequence of Beta-lactamase TEM (Escherichia coli) (P62593 whole entry, looked up): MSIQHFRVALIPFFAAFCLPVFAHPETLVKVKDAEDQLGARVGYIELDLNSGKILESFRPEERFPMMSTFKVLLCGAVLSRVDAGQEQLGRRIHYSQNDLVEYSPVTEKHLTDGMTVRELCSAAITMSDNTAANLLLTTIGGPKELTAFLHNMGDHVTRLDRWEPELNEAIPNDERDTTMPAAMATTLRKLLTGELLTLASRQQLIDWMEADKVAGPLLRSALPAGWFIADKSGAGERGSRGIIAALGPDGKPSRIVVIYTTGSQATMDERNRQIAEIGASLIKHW

The Kd is the free concentration of one partner at which half of the binding sites on the other are occupied at equilibrium, for simple one-to-one binding. Low readings indicate tighter binding, high ones weaker binding. With `C/C=C1\O[C@@H]2CC(=O)N2[C@H]1C(=O)O` [Sodium; (2R,5R)-3-eth-(Z)-ylidene-7-oxo-4-oxa-1-aza-bicyclo[3.2.0]heptane-2-carboxylate], the Kd is 800 nM.

These data come from BindingDB's records for doi:10.1016/0960-894X(95)00162-M (1995).
